This passage reports IC50 and Dmax results from patent US12310975B2, “Modulators of BCL6 proteolysis and associated methods of use” (Arvinas Operations, Inc., priority 2019, dated 2025).

The target of the test is BCL6 (Homo sapiens (Human), UniProt P41182). In words: Immunofluorescence high content imaging of BCL6 degradation in T47D cells. The note with it: for Dmax: T47D. The format is cell-based. Put shortly:
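Following a 3-day incubation with serially diluted bifunctional compounds (final top 0.1 or 1 μM), T47D cells were PFA-fixed and immunostained for BCL6. Nuclear BCL6 signal was captured on a high-content imager.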

A word on the IC50: it is the point on the concentration scale where inhibition reaches its midpoint. One may read the Dmax as the largest share of the target that was removed. A high value points to deep degradation. The compound `CC(=O)COc1cc2cc(Nc3nc(C#CC4CCN(c5cccc6c5C(=O)N(C5CCC(=O)NC5=O)C6=O)CC4)ncc3Cl)ccc2n(C)c1=O` (stereo not drawn) [compound 184, 4-(4-((5-chloro-4-((1-methyl-2-oxo-3-(2-oxopropoxy)-1,2-dihydroquinolin-6-yl)amino)pyrimidin-2-yl)ethynyl)piperidin-1-yl)-2-(2,6-dioxopiperidin-3-yl)isoindoline-1,3-dione] had a half-maximal inhibitory concentration (IC50) of 10 to 50 nM and a maximal degradation (Dmax) of 50 to 70%.

Take `CNC(=O)COc1cc2cc(Nc3nc(N4CCN(C)CC4)ncc3Cl)ccc2n(CCCCOc2ccc3c(c2)C(=O)N(C2CCC(=O)NC2=O)C3=O)c1=O` (stereo not drawn) [compound 238, 2-((6-((5-chloro-2-(4-methylpiperazin-1-yl)pyrimidin-4-yl)amino)-1-(4-((2-(2,6-dioxopiperidin-3-yl)-1,3-dioxoisoindolin-5-yl)oxy)butyl)-2-oxo-1,2-dihydroquinolin-3-yl)oxy)-N-methylacetamide]: the IC50 was no less than 100 nM and the Dmax was less than 50%.

As for `CNC(=O)Cc1cc2cc(Nc3nc(N4CCC(CN5CCN(c6ccc7c(c6)C(=O)N(C6CCC(=O)NC6=O)C7=O)CC5)CC4)ncc3Cl)ccc2n(C)c1=O` (stereo not drawn) [compound 239, 2-(6-((5-chloro-2-(4-((4-(2-(2,6-dioxopiperidin-3-yl)-1,3-dioxoisoindolin-5-yl)piperazin-1-yl)methyl)piperidin-1-yl)pyrimidin-4-yl)amino)-1-methyl-2-oxo-1,2-dihydroquinolin-3-yl)-N-methylacetamide], the IC50 is no less than 100 nM.

In turn, `CNC(=O)COc1cc2cc(Nc3nc(N4CCN(CC5(O)CCN(c6ccc7c(c6)C(=O)N(C6CCC(=O)NC6=O)C7=O)CC5)CC4)ncc3Cl)ccc2n(C)c1=O` (stereo not drawn) [compound 240, 2-((6-((5-chloro-2-(4-((1-(2-(2,6-dioxopiperidin-3-yl)-1,3-dioxoisoindolin-5-yl)-4-hydroxypiperidin-4-yl)methyl)piperazin-1-yl)pyrimidin-4-yl)amino)-1-methyl-2-oxo-1,2-dihydroquinolin-3-yl)oxy)-N-methylacetamide] registered an IC50 of 10 to 50 nM and a Dmax of 50 to 70%.

In the case of `CNC(=O)COc1cc2cc(Nc3nc(N4CCCC(OC5CCN(c6ccc7c(c6)C(=O)N(C6CCC(=O)NC6=O)C7=O)CC5)CC4)ncc3Cl)ccc2n(C)c1=O` (stereo not drawn) [compound 241, 2-((6-((5-chloro-2-(4-((1-(2-(2,6-dioxopiperidin-3-yl)-1,3-dioxoisoindolin-5-yl)piperidin-4-yl)oxy)azepan-1-yl)pyrimidin-4-yl)amino)-1-methyl-2-oxo-1,2-dihydroquinolin-3-yl)oxy)-N-methylacetamide], the IC50 was 10 to 50 nM and the greatest degradation seen (Dmax) is less than 50%.

`CNC(=O)COc1cc2cc(Nc3nc(N4CCC(OC5CCCN(c6ccc7c(c6)C(=O)N(C6CCC(=O)NC6=O)C7=O)CC5)CC4)ncc3Cl)ccc2n(C)c1=O` (stereo not drawn) [compound 242, 2-((6-((5-chloro-2-(4-((1-(2-(2,6-dioxopiperidin-3-yl)-1,3-dioxoisoindolin-5-yl)azepan-4-yl)oxy)piperidin-1-yl)pyrimidin-4-yl)amino)-1-methyl-2-oxo-1,2-dihydroquinolin-3-yl)oxy)-N-methylacetamide] returned an IC50 of no less than 100 nM.

Turning to `CNC(=O)COc1cc2cc(Nc3nc(N4CCN(CC5CCN(c6ccc(C(=O)NC7CCC(=O)NC7=O)c(OC)c6)CC5)CC4)ncc3Cl)ccc2n(C)c1=O` (stereo not drawn) [compound 243, 4-(4-((4-(5-chloro-4-((1-methyl-3-(2-(methylamino)-2-oxoethoxy)-2-oxo-1,2-dihydroquinolin-6-yl)amino)pyrimidin-2-yl)piperazin-1-yl)methyl)piperidin-1-yl)-N-(2,6-dioxopiperidin-3-yl)-2-methoxybenzamide], the half-maximal inhibitory concentration (IC50) is less than 10 nM and the greatest degradation seen (Dmax) was no less than 70%.

Regarding `CNC(=O)COc1cc2cc(Nc3nc(N4CCN(C)CC4)ncc3Cl)ccc2n(CCCOc2ccc3c(c2)C(=O)N(C2CCC(=O)NC2=O)C3=O)c1=O` (stereo not drawn) [compound 244, 2-((6-((5-chloro-2-(4-methylpiperazin-1-yl)pyrimidin-4-yl)amino)-1-(3-((2-(2,6-dioxopiperidin-3-yl)-1,3-dioxoisoindolin-5-yl)oxy)propyl)-2-oxo-1,2-dihydroquinolin-3-yl)oxy)-N-methylacetamide], the concentration for half-maximal inhibition (IC50) was no less than 100 nM and the Dmax is no less than 70%.

As to `CNC(=O)COc1cc2cc(Nc3nc(N4CCN(CC5CN(c6ccc7c(c6)C(=O)N(C6CCC(=O)NC6=O)C7=O)C5)CC4)ncc3Cl)ccc2n(C)c1=O` (stereo not drawn) [compound 246, 2-((6-((5-chloro-2-(4-((1-(2-(2,6-dioxopiperidin-3-yl)-1,3-dioxoisoindolin-5-yl)azetidin-3-yl)methyl)piperazin-1-yl)pyrimidin-4-yl)amino)-1-methyl-2-oxo-1,2-dihydroquinolin-3-yl)oxy)-N-methylacetamide], the IC50 was less than 10 nM and the Dmax is no less than 70%.

Compound `CNC(=O)COc1cc2cc(Nc3nc(N4CCC(CCOC5CN(c6ccc7c(c6)C(=O)N(C6CCC(=O)NC6=O)C7=O)C5)CC4)ncc3Cl)ccc2n(C)c1=O` (stereo not drawn) [compound 247, 2-((6-((5-chloro-2-(4-(2-((1-(2-(2,6-dioxopiperidin-3-yl)-1,3-dioxoisoindolin-5-yl)azetidin-3-yl)oxy)ethyl)piperidin-1-yl)pyrimidin-4-yl)amino)-1-methyl-2-oxo-1,2-dihydroquinolin-3-yl)oxy)-N-methylacetamide] had an IC50 of less than 10 nM and a Dmax of 50 to 70%.

The compound `CNC(=O)COc1cc2cc(Nc3nc(N4CCC(CN5CC6(C5)CN(c5ccc7c(c5)C(=O)N(C5CCC(=O)NC5=O)C7=O)C6)CC4)ncc3Cl)ccc2n(C)c1=O` (stereo not drawn) [compound 248, 2-((6-((5-chloro-2-(4-((6-(2-(2,6-dioxopiperidin-3-yl)-1,3-dioxoisoindolin-5-yl)-2,6-diazaspiro[3.3]heptan-2-yl)methyl)piperidin-1-yl)pyrimidin-4-yl)amino)-1-methyl-2-oxo-1,2-dihydroquinolin-3-yl)oxy)-N-methylacetamide] displayed an IC50 of no less than 100 nM.

For `Cn1c(=O)c(N2CCC2=O)cc2cc(Nc3nc(N4CCN(CC5CCN(c6ccc7c(c6)C(=O)N(C6CCC(=O)NC6=O)C7=O)CC5)CC4)ncc3Cl)ccc21` (stereo not drawn) [compound 249, 5-(4-((4-(5-chloro-4-((1-methyl-2-oxo-3-(2-oxoazetidin-1-yl)-1,2-dihydroquinolin-6-yl)amino)pyrimidin-2-yl)piperazin-1-yl)methyl)piperidin-1-yl)-2-(2,6-dioxopiperidin-3-yl)isoindoline-1,3-dione], the IC50 was no less than 100 nM.

For the compound `CCn1c(=O)c(OCC(=O)NC)cc2cc(Nc3nc(N4CCN(CC5CCN(c6ccc7c(c6)C(=O)N(C6CCC(=O)NC6=O)C7=O)CC5)CC4)ncc3Cl)ccc21` (stereo not drawn) [compound 250, 2-((6-((5-chloro-2-(4-((1-(2-(2,6-dioxopiperidin-3-yl)-1,3-dioxoisoindolin-5-yl)piperidin-4-yl)methyl)piperazin-1-yl)pyrimidin-4-yl)amino)-1-ethyl-2-oxo-1,2-dihydroquinolin-3-yl)oxy)-N-methylacetamide], the half-inhibitory concentration (IC50) was less than 10 nM and the greatest degradation seen (Dmax) was in the range of 50 to 70%.

In turn, `CNC(=O)COc1cc2cc(Nc3nc(N4CCC(CCOC5CN(c6cccc7c6C(=O)N(C6CCC(=O)NC6=O)C7=O)C5)CC4)ncc3Cl)ccc2n(C)c1=O` (stereo not drawn) [compound 252, 2-((6-((5-chloro-2-(4-(2-((1-(2-(2,6-dioxopiperidin-3-yl)-1,3-dioxoisoindolin-4-yl)azetidin-3-yl)oxy)ethyl)piperidin-1-yl)pyrimidin-4-yl)amino)-1-methyl-2-oxo-1,2-dihydroquinolin-3-yl)oxy)-N-methylacetamide] gave a half-inhibitory concentration (IC50) of less than 10 nM and a Dmax of 50 to 70%.

On to `CNC(=O)COc1cc2cc(Nc3cc(N4CCN(CC5CCN(c6ccc7c(c6)C(=O)N(C6CCC(=O)NC6=O)C7=O)CC5)CC4)ncc3Cl)ccc2n(C)c1=O` (stereo not drawn) [compound 253, 2-((6-((5-chloro-2-(4-((1-(2-(2,6-dioxopiperidin-3-yl)-1,3-dioxoisoindolin-5-yl)piperidin-4-yl)methyl)piperazin-1-yl)pyridin-4-yl)amino)-1-methyl-2-oxo-1,2-dihydroquinolin-3-yl)oxy)-N-methylacetamide], for which the maximal degradation (Dmax) was no less than 70%.

`CNC(=O)COc1cc2cc(Nc3nc(N4CCN(CC5CCN(c6ccc7c(c6)C(=O)N(C6CCC(=O)NC6=O)C7=O)CC5)CC4)c(Cl)cc3Cl)ccc2n(C)c1=O` (stereo not drawn) [compound 254, 2-((6-((3,5-dichloro-6-(4-((1-(2-(2,6-dioxopiperidin-3-yl)-1,3-dioxoisoindolin-5-yl)piperidin-4-yl)methyl)piperazin-1-yl)pyridin-2-yl)amino)-1-methyl-2-oxo-1,2-dihydroquinolin-3-yl)oxy)-N-methylacetamide] yielded a 50% inhibitory concentration (IC50) of no less than 100 nM.

As to `CNC(=O)COc1cc2cc(Nc3nc(N4CCC(OC5CN(c6cccc7c6C(=O)N(C6CCC(=O)NC6=O)C7=O)C5)CC4)ncc3Cl)ccc2n(C)c1=O` (stereo not drawn) [compound 255, 2-((6-((5-chloro-2-(4-((1-(2-(2,6-dioxopiperidin-3-yl)-1,3-dioxoisoindolin-4-yl)azetidin-3-yl)oxy)piperidin-1-yl)pyrimidin-4-yl)amino)-1-methyl-2-oxo-1,2-dihydroquinolin-3-yl)oxy)-N-methylacetamide], the IC50 was less than 10 nM and the greatest degradation seen (Dmax) was less than 50%.

Regarding `CNC(=O)COc1cc2cc(Nc3nc(N4CCC(CN5CC6(C5)CN(c5cccc7c5C(=O)N(C5CCC(=O)NC5=O)C7=O)C6)CC4)ncc3Cl)ccc2n(C)c1=O` (stereo not drawn) [compound 256, 2-((6-((5-chloro-2-(4-((6-(2-(2,6-dioxopiperidin-3-yl)-1,3-dioxoisoindolin-4-yl)-2,6-diazaspiro[3.3]heptan-2-yl)methyl)piperidin-1-yl)pyrimidin-4-yl)amino)-1-methyl-2-oxo-1,2-dihydroquinolin-3-yl)oxy)-N-methylacetamide], the IC50 is less than 10 nM and the greatest degradation seen (Dmax) was 50 to 70%.
